{"source": "patent US20180320186A1", "about": "“METHOD FOR SITE-SPECIFIC INSERTION OF FOREIGN DNA INTO A GENOME IN AN ANIMAL CELL AND A CELL OBTAINED USING SAME” (INTER-UNIVERSITY RESEARCH INSTITUTE CORPORATION RESEARCH …, priority 2015, published 2018)", "format_in_all_cases": "cell-based, human", "key": {"[1]": {"system": "living cells in which a DHC1-mAID-Clover fusion protein is expressed", "test": "Percentage of mitotic cells and fluorescence microscopy (tubulin antibody, SiR-Hoechst) of cells expressing DHC1-mAID-Clover", "conditions": "500 μM auxin with 1 μg/mL tetracycline", "procedure": "FIG. 12 is a graph showing the percentage of mitotic cells at 18 and 42 hours after treatment, using living cells in which a DHC1-mAID-Clover fusion protein is expressed, untreated and treated with 1 μg/mL of tetracycline alone, or 1 μg/mL of tetracycline and 500 μM of auxin.\nThe percentage of mitotic cells at 18 and 42 hours after treatment was calculated, using living cells in which a DHC1-mAID-Clover fusion protein is expressed, untreated and treated with 1 μg/mL of tetracycline alone, or 1 μg/mL of tetracycline and 500 μM of auxin (FIG. 12).\nIn addition, fluorescence microscope observation was carried out after immunostaining with a tubulin antibody and nuclear staining with SiR-Hoechst at 18 hours after treatment for living cells in which a DHC1-mAID-Clover fusion protein is expressed, untreated and treated with 1 μg/mL of tetracycline and 500 μM of auxin (FIG. 13)."}, "[2]": {"system": "living cells in which a DHC1-mAID-Clover fusion protein is expressed", "test": "Relative number of cells after treatment of cells expressing DHC1-mAID-Clover", "conditions": "500 μM auxin with 2 μg/mL doxycycline; 24, 48 and 72 hours relative to zero hours", "procedure": "FIG. 11 is a graph showing the relative number of cells at 24, 48, and 72 hours after treatment with respect to the number of cells at zero hours after treatment, using living cells in which a DHC1-mAID-Clover fusion protein is expressed, untreated and treated with 2 μg/mL of doxycycline alone, or 2 μg/mL of doxycycline and 500 μM of auxin.\nThe relative number of cells at 24, 48, and 72 hours after treatment was calculated with respect to the number of cells at zero hours after treatment, using living cells in which a DHC1-mAID-Clover fusion protein is expressed, untreated and treated with 2 μg/mL of doxycycline alone, or 2 μg/mL of doxycycline and 500 μM of auxin (FIG. 11)."}, "[3]": {"system": "RAD21-mAID-Clover fusion protein", "test": "Deconvolution fluorescence microscopy of living cells expressing RAD21-mAID-Clover after auxin treatment", "conditions": "500 μM auxin, observed after 90 minutes, HCT116 with or without OsTIR1", "procedure": "(§1) In this experiment, wild-type HCT116 cells and HCT 116 cells modified to constitutively express OsTIR1 necessary for an auxin-inducible degron (AID) method were used as materials. Proliferating cells were prepared in a 6-well plate. 0.8 μg of pX330 for cleaving the target portion of RAD21 gene and 0.6 μg of each of the constructed donor vectors having neomycin and hygromycin resistance markers were mixed and transfected into the cells using Fugene HD (available from Promega Corporation). For transfection, DNA and Fugene HD were mixed according to the instruction manual, allowed to stand for 15 minutes and then added dropwise to the medium.\nIn the cells before treatment with auxin (3-indole acetic acid), it was observed that RAD21-mAID-Clover was localized in the cell nucleus, regardless of expression of OsTIR1."}, "[4]": {"system": "RAD21-mAID-Clover fusion protein", "test": "Western blotting of RAD21-mAID-Clover after auxin treatment (AID method)", "conditions": "500 μM auxin for 20 hours, HCT116 with or without OsTIR1", "procedure": "as §1\nA protein was extracted from clones in which insertions into both alleles were confirmed by genomic PCR, and subjected to Western blotting using a RAD21 antibody and a mAID antibody (right in FIG. 6). […] The RAD21 to which mAID-Clover was not added was detected at 105 kDa. On the other hand, the RAD21-mAID-Clover fusion protein was detected at 145 kDa. As shown in the right side of FIG. 6, in the case where a RAD21 antibody was used, a 105 kDa band was detected in the original HCT116 cells (WT), whereas in the case where mAID-Clover was added to both alleles, a 145 kDa band was detected. In addition, in the case where a mAID antibody was used, only the RAD21 protein having mAID-Clover added thereto was detected."}, "[5]": {"system": "DHC1 protein having mAID-Clover added", "test": "Western blotting with DHC1 antibody after doxycycline and auxin treatment", "conditions": "500 μM auxin with 2 μg/mL doxycycline for 2, 4, 6, 8, 10 and 24 hours", "procedure": "as §1, with “DHC1” for “RAD21”\nA protein was extracted from clones in which insertions into both alleles were confirmed by genomic PCR, and subjected to Western blotting using a DHC1 antibody and an OsTIR antibody (right in FIG. 10). In addition, a protein was similarly extracted from the cells treated with 2 μg/mL of doxycycline and 500 μM of auxin (3-indole acetic acid) for 2, 4, 6, 8, 10, and 24 hours, and used for Western blotting."}}, "data": [{"smiles": "O=C(O)Cc1c[nH]c2ccccc12", "note": "[auxin, 3-indole acetic acid]", "values": [{"measurement": "Percentage of mitotic cells", "setting": "[1]; 18 and 42 hours after treatment", "result": "accumulation of mitotic cells"}, {"measurement": "Chromosomal structure (fluorescence microscopy)", "setting": "[1]; 18 hours after treatment", "result": "a chromosomal structural abnormality occurred"}, {"measurement": "Relative number of cells (cell proliferation)", "setting": "[2]", "result": "cell proliferation was suppressed after 48 hours from the treatment"}, {"measurement": "Disappearance of RAD21-mAID-Clover from the nucleus (fluorescence microscope)", "setting": "[3]", "result": "RAD21-mAID-Clover disappeared only in cells expressing OsTIR1"}, {"measurement": "Degradation of RAD21-mAID-Clover (Western blotting)", "setting": "[4]", "result": "disappearance of RAD21-mAID-Clover occurred in OsTIR1-expressing cells"}, {"measurement": "DHC1-mAID-Clover protein level (DHC1 antibody)", "setting": "[5]", "result": "disappeared with time"}]}]}
